Data: US7402575B2, “Methods of treating inflammation” (priority 2003, dated 2008)

What was measured:
Type in all cases: cell-based, dog
[1] = test system: nitric-oxide guanosine 3′,5′cyclic monophosphate pathway; assay: Effect of NOS, guanylyl cyclase and PKG inhibitors on lysozyme's myocardial depressant effect in right ventricular trabecular preparation; settings: for Effect on lysozyme's myocardial depressant effect: muscle incubated with inhibitor about one hour before lysozyme
Protocol: (§1) The right ventricular trabecular preparation used in this study has previously been described. Briefly, mongrel dogs (3 to 10 kg) were anesthetized with pentobarbital. The hearts were removed, flushed with 50 ml of Krebs-Henseleit solution (KH), and placed in ice-cold KH bubbled with a mixture of 95% O2 and 5% CO2. Three to four thin trabeculae (<1 mm diameter) were obtained from the right ventricle and were tied at each end with 6-O silk thread. Each thin muscle was suspended in a 5 ml vertical constant temperature bath that contained KH. The muscle was stimulated electrically via punctate platinum bipolar electrodes with rectangular pulses (1 ms duration) at an intensity of 50% above threshold delivered at intervals of 2,000 ms. The trabeculae were stretched to optimal length.
The plasma concentration of lysozyme attained in the inventors' sepsis model is approximately 10^−8M, and the 10^−7M to 10^−9M range was used in the experiments described below. Lysozyme was purified from the spleens of nonseptic dogs as previously described. Measurements were obtained at 5 minute intervals.
In one group of experiments, the non-specific nitric oxide synthase inhibitor N^G-monomethyl-L-arginine (L-LNMMA) was used to determine whether it could inhibit the depressant effect of lysozyme. The muscle was incubated with L-NMMA (10^−3M) for approximately one hour after which lysozyme was instilled into the preparation. As a negative control group, ventricular trabeculae were incubated with D-NMMA after which lysozyme was instilled. With the D-isomer, no inhibition of lysozyme's effect would be expected.
In separate experiments, the respective roles of eNOS, nNOS, and iNOS were evaluated in which the objective was to determine which of the NOS isoforms was responsible for the myocardial depression observed with lysozyme. The relatively specific inhibitors for eNOS (L-NIO.2HCl [L-N^5-(1-[Iminoethyl)-ornithine.2HCl], nNOS (N-ω-Propyl-L-arginine [N^5-[Imino(propylamino)methyl]-L-ornithine], and iNOS (1400W.dihydrochloride [N-(3-aminomethyl)benzyl)acetamidine.2HCl] were compared in respective experiments in which a range of concentrations of either NOS inhibitor was used.
In other experiments, the muscle was incubated ODQ (10^−3M) or the PKG inhibitor (Rp-8-Br-cGMP) for one hour. The effect of lysozyme on isometric tension was compared to trabeculae without the respective inhibitors.
The results are expressed as a percent of baseline isometric tension. Statistical analyses included two-way analysis of variance and Student Newman Keuls' multiple comparison test. The results are reported as mean (±SD).

[2] = molecular target: T1, lysozyme c (Lzm-S) (Canis lupus familiaris, UniProt P81709); assay: Inhibition of Lzm-S's myocardial depressant activity (isometric tension) in right ventricular trabecular preparation; settings: for Isometric tension following pre-treatment with sugar: sugar 10^−3M added before Lzm-S; for Inhibition of Lzm-S's depressant effect on isometric tension: inhibitor 10^−3M added before Lzm-S, paced 0.5 Hz
T1 construct: Lzm-S was purified in a manner described by Grobler et al (14); from tissue
T1 sequence (P81709 1-130): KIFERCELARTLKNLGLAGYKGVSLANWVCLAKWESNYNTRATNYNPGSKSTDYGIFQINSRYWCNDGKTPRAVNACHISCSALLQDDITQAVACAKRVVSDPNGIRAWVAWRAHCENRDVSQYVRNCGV
Protocol: In subsequent experiments, the objective was to determine whether pretreatment of Lzm-S with the proteolytic enzyme proteinase-K reduced the extent to which myocardial depression developed in the in vitro preparation (7). Proteinase-K (attached to beaded agarose; Sigma Chemical, St Louis, Mo.) was added to the pure Lzm-S preparation. The effects of proteinase-K treated and nontreated Lzm-S on isometric tension were compared between the samples. Since proteinase-K is a non-specific proteolytic enzyme, a specific competitive inhibitor of lysozyme, TAC (chitotriose) was subsequently examined to determine whether it prevented the depression in isometric tension observed in the in vitro preparation (16,17).
In one set of experiments, it was determined whether TAC prevented the reduction in tension observed with Lzm-S. A dose of 10^−3M TAC (based on preliminary experiments) was added to the organ bath before the addition of Lzm-S. Lzm-S was then added to bring the final concentrations to 10^−10M, 10^−9M, 10^−8M, and 10^−7M in sequential steps. In a related set of experiments, the effect of TAC was studied under a similar protocol in which the ventricular trabecular preparation was paced at 1 Hz instead of 0.5 Hz. The objective was to determine whether the higher frequency altered the inhibitory response of TAC. In a third set of experiments, the sequence of adding TAC and Lzm-S was reversed. Lzm-S (10^−7M) was initially added to the preparation, after which TAC at bath concentrations of 10^−6M, 10^−5M, 10^−4M, 10^−3M were sequentially added. The objective was to determine whether TAC could attenuate the effect of Lzm-S on reducing the isometric response after an initial depression in isometric tension had already been attained.
as §1, with “(RV)” for “trabecular”, “also” for “previously”, “described (49,6).” for “described.”, “a” for “a 5 ml”, “bath (5 ml)” for “bath”, “KH (in mM: NaCl, 118; KCl, 4.7; CaCl2 2.5; MgSO4, 1.2; KH2PO4, 1.4; NaHCO3, 25; and dextrose, 11).” for “KH.”
Inhibitory activities of N-acetylglucosamine (NAG), N,N′ diacetylglucosamine (NAG-NAG: N,N′ diacetylchitobiose), and N,N′,N″,N′″ tetraacetylglucosamine (NAG-NAG-NAG-NAG: N,N′,N″,N′″-tetraacetylchitotetraose) were examined (Sigma Corp Canada, Oakville Ontario). These are structurally similar to TAC, but have a different number of NAG units (17). Two somewhat related sugars were also examined to see if there was potential for blocking the activity of lysozyme. These included D-cellotriose and N-aceytllactosamine. D-cellotriose includes three glucose residues linked by beta (1-4) glycosidic linkages, while N acetyllactosamine includes N-acetylglucosamine and galactose residues linked by beta (1-4) glycosidic linkages (12).
After baseline tension was determined, either the sugar or placebo was placed into respective organ baths. The concentration of the sugar used was 10^−3M based on the inventors' previous experiments with TAC 49), while the concentrations of lysozyme were 10^−9, 10^−8, and 10^−7M, respectively. Measurements were obtained at 5 minute intervals. The changes in isometric tension measured from baseline were compared between the treated and placebo baths. […]

[3] = test system: right ventricular trabecular preparation; assay: Effect of the substance itself on isometric tension in right ventricular trabecular preparation
Protocol: Aliquots of the 10-30 KD plasma fraction (0.05 to 1 ml) were then added to a right ventricular (RV) trabecular preparation to test for the presence of FCS activity. The RV preparation has previously been described (6,7). Briefly, mongrel dogs (3 to 10 kg) were anesthetized with pentobarbital, and their hearts were removed. Three to four thin trabeculae (<1 mm diameter) were obtained from the right ventricle and were suspended in a vertical constant temperature bath (5 ml) that contained Krebs Henseleit (KH) solution. The muscle was stimulated electrically at 0.5 Hz. Aliquots of plasma fractions (from 0.05 to 1 ml) were added to respective organ baths at 5 minute intervals. The changes observed in the pre and septic plasma fractions were expressed relative to tensions found at baseline (i.e. prior to the addition of the sample). An increase in the depressant activity in the septic plasma fraction relative to that found in the presepsis sample was indicative of an increase in FCS.
The effect of purified Lzm-S on myocardial depression was then studied in the ventricular trabecular preparation. In initial experiments, the objective was to compare Lzm-S prepared from septic and nonseptic spleens to see if there was any difference between the two preparations. Although no differences were apparent by SDS-PAGE gel, different isoforms of the enzyme could have developed in sepsis thereby increasing its potential to cause myocardial depression. Aliquots of the septic and nonseptic preparations were added (at 5 minute intervals) to respective organ baths, and the changes in isometric tension were then compared between Lzm-S obtained from spleens of septic and nonseptic animals.
The right ventricular (RV) preparation used in this study has also been described (49,6). Briefly, mongrel dogs (3 to 10 kg) were anesthetized with pentobarbital. The hearts were removed, flushed with 50 ml of Krebs-Henseleit solution (KH), and placed in ice-cold KH bubbled with a mixture of 95% O2 and 5% CO2. […]
After baseline tension was determined, either the lectin or placebo was placed into respective organ baths. […]

| Compound | Effect on lysozyme's myocardial depressant effect [1] | Isometric tension following pre-treatment with sugar ([2]; Lzm-S 10^−7M) | Isometric tension following pre-treatment with sugar ([2]; Lzm-S 10^−8M) | Isometric tension following pre-treatment with sugar ([2]; Lzm-S 10^−9M) | Inhibition of Lzm-S's depressant effect on isometric tension [2] | further results |
| --- | --- | --- | --- | --- | --- | --- |
| CNC(=N)NCCCC(N)C(=O)O [D-NMMA] | no inhibition |  |  |  |  |  |
| CC(=N)NCCC[C@H](N)C(=O)O.Cl.Cl [eNOS] | most potent in the prevention of lysozyme's myocardial depressant effect |  |  |  |  | Concentration of the NOS inhibitor at which lysozyme's depressant effect was prevented [1]: 10^−8 M |
| O=c1c2nc(Br)n(C3OC4COP([O-])(=S)OC4C3O)c2nc2[nH]c(-c3ccccc3)cn12.[Na+] (single isomer, unassigned) [Rp-8-Br-cGMP, guanosine 3′,5′-cyclic monophosphorothioate, β-phenyl-1, N^2-etheno-8-bromo-Pp-isomer, sodium salt] | blocked |  |  |  |  |  |
| CC(=O)N[C@H]1[C@H](O[C@H]2[C@H](O)[C@@H](NC(C)=O)C(O)O[C@@H]2CO)O[C@H](CO)[C@@H](O[C@@H]2O[C@H](CO)[C@@H](O[C@@H]3O[C@H](CO)[C@@H](O)[C@H](O)[C@H]3NC(C)=O)[C@H](O)[C@H]2NC(C)=O)[C@@H]1O (stereo partly shown) [tetraacetylchitotetraose, N,N′,N″,N′″ tetraacetylglucosamine] |  |  |  |  | no inhibitory effect | Inhibition of Lzm-S's depressant effect on isometric tension ([2]; listed as N,N′,N″,N′″ tetraacetylchitotetraose): no inhibitory effect on lysozyme's depressant activity |
| CNC(=N)NCCC[C@H](N)C(=O)O [L-NMMA, N^G-monomethyl-L-arginine, reference compound] | markedly attenuated |  |  |  |  | Effect of the substance by itself on isometric tension [3]: no change in isometric tension |
| CC(=O)N[C@H]1C(O)O[C@H](CO)[C@@H](O[C@@H]2O[C@H](CO)[C@H](O)[C@H](O)[C@H]2O)[C@@H]1O (stereo partly shown) [N-acetyllactosamine] |  | 48±1 % of baseline | 55±1 % of baseline | 60±0 % of baseline | neither N-acetylglucosamine (NAG), N-acetyllactosamine nor cellotriose had inhibitory properties |  |
| N=C(N)NCCC[C@H](N)C(=O)O [L-arginine] |  |  |  |  |  | Effect on the inhibition by L-NMMA [1]: able to competively overcome the effect of L-NMMA |
| O=c1onc2cnc3ccccc3n12 [ODQ, 1H-[1,2,4] oxidadiazolo-[4,3-a] quinoxalin-1-one] | blocked |  |  |  |  |  |

Second part, led by results:

| Effect on lysozyme's myocardial depressant effect [1] | Isometric tension following pre-treatment with sugar ([2]; Lzm-S 10^−7M) | Isometric tension following pre-treatment with sugar ([2]; Lzm-S 10^−8M) | Isometric tension following pre-treatment with sugar ([2]; Lzm-S 10^−9M) | Compound | Inhibition of Lzm-S's depressant effect on isometric tension [2] | further results |
| --- | --- | --- | --- | --- | --- | --- |
|  | 44±2 % of baseline | 61±4.5 % of baseline | 85±2 % of baseline | CC(=O)N[C@H]1C(O)O[C@H](CO)[C@@H](O)[C@@H]1O (stereo partly shown) [N-acetylglucosamine] | neither N-acetylglucosamine (NAG), N-acetyllactosamine nor cellotriose had inhibitory properties |  |
|  | 58±17 % of baseline | 79±13 % of baseline | 84±9 % of baseline | OCC1OC(OC2C(CO)OC(OC3C(CO)OC(O)C(O)C3O)C(O)C2O)C(O)C(O)C1O [cellotriose, D-cellotriose] | neither N-acetylglucosamine (NAG), N-acetyllactosamine nor cellotriose had inhibitory properties |  |
